Like-named read-outs stand apart in the source and are kept apart here.
Experiments:
[1] = tested on: L. infantum axenic amastigotes; test: In vitro antileishmanial evaluation on axenic amastigotes (resazurin viability); assay type: cell-based, Leishmania infantum; conditions: 72 h incubation then resazurin 24 h, triplicate, three independent experiments, read-out: L. infantum Axenic Amastigotes IC50 (µM) ± S.D.
Procedure: Cultures of axenic amastigotes of L. infantum were adapted from. Briefly, axenic amastigotes of L. infantum were obtained from late log promastigotes diluted at 1 × 10^6/mL in M199 complete medium acidified at pH 5.5 and cultured at 37 °C with 5% CO2.
The evaluations of activity on axenic amastigotes were adapted from the protocols previously described. […] Cell viability was then monitored as described above. The activity of the compounds was expressed as IC50, which was determined by nonlinear regression using GraphPad Prism 7.0.

[2] = tested on: L. infantum intramacrophagic amastigotes; test: In vitro antileishmanial evaluation on intramacrophage amastigotes in RAW264.7 macrophages (Giemsa counting); assay type: cell-based, Leishmania infantum; conditions: infected RAW264.7 macrophages, 48 h of treatment, amastigotes per macrophage counted, read-out: L. infantum Intramacrophagic Amastigotes IC50 (µM) ± S.D.
Procedure: Promastigotes of Leishmania infantum (MHOM/FR/2008/LEM5700) were cultured in the dark at 26 °C with 5% CO2 in M199 complete medium containing M199 medium supplemented with adenosine (100 µM), hemin (0.5 mg/L), Hepes (40 mM) pH 7.4, and heat-inactivated fetal bovine serum (10%; HIFBS). Cultures of axenic amastigotes of L. infantum were adapted from. Briefly, axenic amastigotes of L. infantum were obtained from late log promastigotes diluted at 1 × 10^6/mL in M199 complete medium acidified at pH 5.5 and cultured at 37 °C with 5% CO2.
(§1) The RAW 264.7 macrophages (ATCC) were cultured at 37 °C with 5% CO2 in DMEM complete medium containing Dulbecco’s Modified Eagle’s Medium (DMEM, Invitrogen, Thermo-Fisher, Villebon-sur-Yvette, France) supplemented with penicillin-streptomycin (100 U/mL; Invitrogen) and heat-inactivated fetal bovine serum (10%; HIFBS).
Concerning the evaluation on intramacrophage amastigotes, the determination of the cytotoxicity as presented above was necessary to use the highest drug concentrations to be studied on the intramacrophage amastigote model. The evaluation on the intracellular form on the parasite was performed as previously described. RAW264.7 macrophages were plated in 16-well Lab-Tek chamber slides (Thermo-Fisher Villebon-sur-Yvette, France) at a density of 2 × 10^4 cells per well and incubated for 24 h at 37 °C with 5% CO2. Axenic amastigotes were differentiated as described above, centrifuged at 2000× g for 10 min, resuspended in DMEM complete medium, and added to each well to reach a 16:1 parasite to macrophage ratio. After 24 h of infection at 37 °C with 5% CO2, extracellular parasites were removed, and DMEM complete medium (100 µL) containing two-fold serial dilutions of the compounds, from 100 µM to 0.049 µM, was added to each well. A positive control treated with 1% DMSO was added to each Lab-tek chamber slide. After 48 h of treatment, the medium was removed and cells were fixed in methanol for 1 min, stained in 10% Giemsa (Merck, Guyancourt, France) for 5 min, and further rinsed in water before observation in phase contrast at the microscope (Olympus CX31; Olympus, Rungis, France). The number of amastigotes was counted by two independent experimenters for a total of 300 macrophages per well and the ratio of amastigotes per macrophage was determined for each condition. This ratio was further compared with the one of the positive controls, considered as 100%, to determine a percentage of inhibition (% I), as follows: % I = 100 − [(ratio of amastigotes per macrophage in treated cells/ratio of amastigotes per macrophages in untreated cells) × 100]. The activity of the compounds was expressed as IC50, which was determined by nonlinear regression using GraphPad Prism 7.0. […] In vitro antileishmanial evaluations were performed in triplicate in three independent experiments.

RAW 264.7 macrophages = test: In vitro cytotoxicity on RAW 264.7 macrophages (resazurin); assay type: cell-based; conditions: 48 h of incubation, read-out: Cytotoxicity on RAW 264.7 CC50 (µM) ± S.D.
Procedure: as §1
Cells were plated in 96-well microplates at a density of 2 × 10^4 cells per well. […] In living cells, resazurin is reduced in resorufin, and this conversion is monitored by measuring OD570nm (resorufin) and OD600nm (resazurin; multimode microplate reader Spark®, Tecan, Lyon, France). […] In vitro cytotoxicity assays were performed in triplicate in three independent experiments.

Row | IC50 ([1]; Leishmania infantum) | IC50 ([2]; Leishmania infantum) | Molecule | IC50 [1] | CC50 (RAW 264.7 macrophages) | IC50 [2]
1 | 16.8 ± 1.8 µM | 23.7 ± 6.5 µM | CC(C)=CCCC1(C)C=Cc2c(c3ccccc3n(Cc3ccccc3)c2=O)O1 (stereo not shown) [Compound 15a, 6-Benzyl-2-methyl-2-(4-methylpent-3-en-1-yl)-2,6-dihydro-5H-pyrano [3,2-c]quinolin-5-one] | – | – | –
2 | 15 ± 1.7 µM | > 25 µM | COc1cccc(Cn2c(=O)c3c(c4ccccc42)OC(C)(CCC=C(C)C)C=C3)c1 (stereo not shown) [Compound 15b, 6-(3-Methoxybenzyl)-2-methyl-2-(4-methylpent-3-en-1-yl)-2,6-dihydro-5H-pyrano [3,2-c]quinolin-5-one] | – | – | –
3 | 14.2 ± 4.3 µM | > 25 µM | CC(C)=CCCC1(C)C=Cc2c(c3ccccc3n(Cc3ccccn3)c2=O)O1 (stereo not shown) [Compound 15c, 2-Methyl-2-(4-methylpent-3-en-1-yl)-6-(pyridin-2-ylmethyl)-2,6-dihydro-5H-pyrano [3,2-c]quinolin-5-one] | – | – | –
4 | 17.8 ± 2.3 µM | > 25 µM | COCCn1c(=O)c2c(c3ccccc31)OC(C)(CCC=C(C)C)C=C2 (stereo not shown) [Compound 15d, 6-(2-Methoxyethyl)-2-methyl-2-(4-methylpent-3-en-1-yl)-2,6-dihydro-5H-pyrano [3,2-c]quinolin-5-one] | – | – | –
5 | 9.8 ± 2.9 µM | > 50 µM | CC(C)=CCCC1(C)C=Cc2c(c3ccccc3n(CCc3ccccc3)c2=O)O1 (stereo not shown) [Compound 15f, 2-Methyl-2-(4-methylpent-3-en-1-yl)-6-phenethyl-2,6-dihydro-5H-pyrano [3,2-c]quinolin-5-one] | – | – | –
6 | > 100 µM | > 100 µM | CC(C)=CCCC1(C)C=Cc2c(c3ccccc3n(S(=O)(=O)c3ccccc3)c2=O)O1 (stereo not shown) [Compound 15h, 2-Methyl-2-(4-methylpent-3-en-1-yl)-6-(phenylsulfonyl)-2,6-dihydro-5H-pyrano [3,2-c]quinolin-5-one] | – | – | –
7 | 12.9 ± 3.2 µM | > 15 µM | CC(C)=CCCC1(C)C=Cc2c(c3ccccc3n(C(=O)Oc3ccccc3)c2=O)O1 (stereo not shown) [Compound 15i, Phenyl 2-methyl-2-(4-methylpent-3-en-1-yl)-5-oxo-2H-pyrano [3,2-c]quinoline-6(5H)-carboxylate] | – | – | –
8 | 9.1 ± 0.4 µM | > 25 µM | CC(C)=CCCC1(C)C=Cc2c(c3ccccc3n(C(=O)OC(C)(C)C)c2=O)O1 (stereo not shown) [Compound 15j, tert-Butyl 2-methyl-2-(4-methylpent-3-en-1-yl)-5-oxo-2H-pyrano [3,2-c]quinoline-6(5H)-carboxylate] | – | – | –
9 | 14.6 ± 2.1 µM | 19 ± 2.2 µM | COC(=O)CCCCn1c(=O)c2c(c3ccccc31)OC(C)(CCC=C(C)C)C=C2 (stereo not shown) [Compound 15k, Methyl 5-(2-methyl-2-(4-methylpent-3-en-1-yl)-5-oxo-2H-pyrano [3,2-c]quinolin-6(5H)-yl)pentanoate] | – | – | –
10 | 16.4 ± 1.7 µM | > 100 µM | CC(C)=CCCC1(C)C=Cc2c(c3ccccc3n(CCCCC(=O)O)c2=O)O1 (stereo not shown) [Compound 15l, 5-(2-Methyl-2-(4-methylpent-3-en-1-yl)-5-oxo-2H-pyrano [3,2-c]quinolin-6(5H)-yl)pentanoic acid] | – | – | –
11 | 7 ± 2.1 µM | > 25 µM | CC1(C)CCCC2(C)Oc3c(c(=O)n(Cc4ccccc4)c4ccccc34)C=C12 (stereo not shown) [Compound 16a, 5-Benzyl-8,8,11a-trimethyl-5,8,9,10,11,11a-hexahydro-6H-chromeno [3,2-c]quinolin-6-one] | – | – | –

Further lines, the molecule ahead of its results:

Row | Molecule | IC50 ([1]; Leishmania infantum) | IC50 ([2]; Leishmania infantum) | IC50 [1] | CC50 (RAW 264.7 macrophages) | IC50 [2]
12 | Cn1c(=O)c2c(c3ccccc31)OC(C)(C)C1CCC(C)(O)C(Cl)C21 (stereo not shown) [Compound 3, Chloroaustralasine A] | 8 µM | > 50 µM | 8.1 ± 1.4 µM | – | –
13 | CC1(O)CCC2C(c3c(c4ccccc4[nH]c3=O)OC2(C)C)C1Cl (stereo not shown) [Compound 4] | 18.6 ± 2.5 µM | > 6.25 µM | – | – | –
14 | Cn1c(=O)c2c(c3ccccc31)OC1(C)CCCC(C)(C)C1=C2 (stereo not shown) [Compound 11, 5,8,8,11a-Tetramethyl-5,8,9,10,11,11a-hexahydro-6H-chromeno [3,2-c]quinolin-6-one] | > 100 µM | 14.7 ± 1.6 µM | – | – | –
15 | Cn1c(=O)c2c(c3ccccc31)OC1(C)CCC3C1C2C3(C)C (stereo not shown) [Compound 12, 1,1,3a,9-Tetramethyl-1,1a,1a1,2,3,3a,9,10b-octahydro-10H-4-oxa-9-azacyclobuta [7,1]indeno [5,6-a]naphthalen-10-one] | 42.6 ± 2.1 µM | > 50 µM | – | – | –
16 | CC(C)=CCCC1(C)C=Cc2c(c3ccccc3[nH]c2=O)O1 (stereo not shown) [Compound 14, 2-Methyl-2-(4-methylpent-3-en-1-yl)-2,6-dihydro-5H-pyrano [3,2-c]quinolin-5-one] | 15.6 ± 1.8 µM | > 100 µM | – | – | –
17 | CCCCCn1c(=O)c2c(c3ccccc31)OC(C)(CCC=C(C)C)C=C2 (stereo not shown) [Compound 15g, 2-Methyl-2-(4-methylpent-3-en-1-yl)-6-pentyl-2,6-dihydro-5H-pyrano [3,2-c]quinolin-5-one] | 82.7 ± 6.5 µM | 29.5 ± 9.9 µM | – | > 100 µM | –
18 | CCCCCCCCCCCCCCCCOP(=O)([O-])OCC[N+](C)(C)C [Miltefosine, reference compound] | 1 ± 0.3 µM | 6.7 ± 1.7 µM | – | – | –
19 | Zanthosimuline [Compound 7] | – | – | 29.1 ± 1 µM | – | > 100 µM
